Measured values published in PubChem BioAssay AID1845198 (Molecular Pharmacology Branch, DTP, NCI, 2023).
Where “and” joins values, the source holds several entries; their conditions need not be identical. Equal values may be shown once.

Test system: 425362-245-T-J1 tumor spheroids, viability % test/control
Test: Anticancer human tumor 425362-245-T-J1 patient-derived melanoma cell line growth inhibition
Details: spheroids with HUVEC and MSC; for viability, T/C: stronger effect = lower value
Method in brief: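 Complex tumor spheroids combined malignant cells with endothelial cells and mesenchymal stem cells. DNA-damaging drugs and DNA repair inhibitors were tested alone and in combination, at half-log dilutions down from clinical Cmax (top 10 microM if Cmax unknown), 0.25% DMSO final.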
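Also: spheroids exposed to agents for 7 days.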

## Cn1ncnc1[C@H]1c2n[nH]c(=O)c3cc(F)cc(c23)N[C@@H]1c1ccc(F)cc1 + COc1cc2c(cc1O)CCNC21CSC2c3c(OC(C)=O)c(C)c4c(c3C(COC1=O)N1C(O)C3Cc5cc(C)c(OC)c(O)c5C(C21)N3C)OCO4
Curve of first compound, second compound 30 pM
  IC50: 12.5 nM
Curve of first compound, second compound 94.9 pM
  IC50: < 9.49 nM
Curve of first compound, second compound 0.0003 µM
  IC50: < 9.49 nM
Curve of first compound, second compound 0.000949 µM
  IC50: < 9.49 nM
Curve of first compound, second compound 0.003 µM
  IC50: < 9.49 nM
Second compound 30 pM, first compound 0.00949 µM
  viability, T/C: 56.7%
Second compound 30 pM, first compound 0.03 µM
  viability, T/C: 30.3%
Second compound 30 pM, first compound 0.0949 µM
  viability, T/C: 19.6%
Second compound 30 pM, first compound 0.3 µM
  viability, T/C: 13.2%
Second compound 30 pM, first compound 0.949 µM
  viability, T/C: 6.87%
Second compound 30 pM, first compound 3 µM
  viability, T/C: 1.96%
Second compound 94.9 pM, first compound 0.00949 µM
  viability, T/C: 42.5%
Second compound 94.9 pM, first compound 0.03 µM
  viability, T/C: 20%
Second compound 94.9 pM, first compound 0.0949 µM
  viability, T/C: 14.8%
Second compound 94.9 pM, first compound 0.3 µM
  viability, T/C: 9.34%
Second compound 94.9 pM, first compound 0.949 µM
  viability, T/C: 4.06%
Second compound 94.9 pM, first compound 3 µM
  viability, T/C: 1.23%
Second compound 0.0003 µM, first compound 0.00949 µM
  viability, T/C: 25.2%
Second compound 0.0003 µM, first compound 0.03 µM
  viability, T/C: 6.95%
Second compound 0.0003 µM, first compound 0.0949 µM
  viability, T/C: 3.81%
Second compound 0.0003 µM, first compound 0.3 µM
  viability, T/C: 4.9%
Second compound 0.0003 µM, first compound 0.949 µM
  viability, T/C: 1.34%
Second compound 0.0003 µM, first compound 3 µM
  viability, T/C: 0.77%
Second compound 0.000949 µM, first compound 0.00949 µM
  viability, T/C: 0.45%
Second compound 0.000949 µM, first compound 0.03 µM
  viability, T/C: 0.42%
Second compound 0.000949 µM, first compound 0.0949 µM
  viability, T/C: 0.27%
Second compound 0.000949 µM, first compound 0.3 µM
  viability, T/C: 0.14%
Second compound 0.000949 µM, first compound 0.949 µM
  viability, T/C: 0.13%
Second compound 0.000949 µM, first compound 3 µM
  viability, T/C: 0.22%
Second compound 0.003 µM, first compound 0.00949 µM
  viability, T/C: 0.34%
Second compound 0.003 µM, first compound 0.03 µM
  viability, T/C: 0.37%
Second compound 0.003 µM, first compound 0.0949 µM
  viability, T/C: 0.33%
Second compound 0.003 µM, first compound 0.3 µM
  viability, T/C: 0.35%
Second compound 0.003 µM, first compound 0.949 µM
  viability, T/C: 0.3%
Second compound 0.003 µM, first compound 3 µM
  viability, T/C: 0.36%

## CC1COCCN1c1cc(-c2ccnn2C)c2ccnc(-c3ccn[nH]3)c2n1 (configuration not stated) + Cn1nnc2c(C(N)=O)ncn2c1=O
Curve of first compound, second compound 1 µM
  IC50: < 31.6 nM
Curve of first compound, second compound 3.16 µM
  IC50: < 31.6 nM
Curve of first compound, second compound 10 µM
  IC50: < 31.6 nM
Curve of first compound, second compound 31.6 µM
  IC50: < 31.6 nM
Curve of first compound, second compound 100 µM
  IC50: < 31.6 nM
Second compound 1 µM, first compound 0.0316 µM
  viability, T/C: 34%
Second compound 1 µM, first compound 0.1 µM
  viability, T/C: 9.93%
Second compound 1 µM, first compound 0.316 µM
  viability, T/C: 9.37%
Second compound 1 µM, first compound 1 µM
  viability, T/C: 7.42%
Second compound 1 µM, first compound 3.16 µM
  viability, T/C: 8.52%
Second compound 1 µM, first compound 10 µM
  viability, T/C: 7.26%
Second compound 3.16 µM, first compound 0.0316 µM
  viability, T/C: 46%
Second compound 3.16 µM, first compound 0.1 µM
  viability, T/C: 13.1%
Second compound 3.16 µM, first compound 0.316 µM
  viability, T/C: 8.7%
Second compound 3.16 µM, first compound 1 µM
  viability, T/C: 8.72%
Second compound 3.16 µM, first compound 3.16 µM
  viability, T/C: 9.76%
Second compound 3.16 µM, first compound 10 µM
  viability, T/C: 9.55%
Second compound 10 µM, first compound 0.0316 µM
  viability, T/C: 33.1%
Second compound 10 µM, first compound 0.1 µM
  viability, T/C: 12.4%
Second compound 10 µM, first compound 0.316 µM
  viability, T/C: 6.43%
Second compound 10 µM, first compound 1 µM
  viability, T/C: 8.73%
Second compound 10 µM, first compound 3.16 µM
  viability, T/C: 8.17%
Second compound 10 µM, first compound 10 µM
  viability, T/C: 7.97%
Second compound 31.6 µM, first compound 0.0316 µM
  viability, T/C: 41.4%
Second compound 31.6 µM, first compound 0.1 µM
  viability, T/C: 10.8%
Second compound 31.6 µM, first compound 0.316 µM
  viability, T/C: 8%
Second compound 31.6 µM, first compound 1 µM
  viability, T/C: 8.25%
Second compound 31.6 µM, first compound 3.16 µM
  viability, T/C: 8.57%
Second compound 31.6 µM, first compound 10 µM
  viability, T/C: 9.27%
Second compound 100 µM, first compound 0.0316 µM
  viability, T/C: 16%
Second compound 100 µM, first compound 0.1 µM
  viability, T/C: 8.9%
Second compound 100 µM, first compound 0.316 µM
  viability, T/C: 6.62%
Second compound 100 µM, first compound 1 µM
  viability, T/C: 5.43%
Second compound 100 µM, first compound 3.16 µM
  viability, T/C: 8.9%
Second compound 100 µM, first compound 10 µM
  viability, T/C: 6.85%

## O=C(c1cc(Cc2n[nH]c(=O)c3ccccc23)ccc1F)N1CCN(C(=O)C2CC2)CC1
Compound 0.0949 µM
  viability, T/C: 92.6% and 110% and 97.2%
Compound 0.3 µM
  viability, T/C: 82.7% and 97.3% and 92.5%
Compound 0.949 µM
  viability, T/C: 73.7% and 88.9% and 75.7%
Compound 3 µM
  viability, T/C: 41.4% and 60.6% and 45.6%
Compound 9.49 µM
  viability, T/C: 12% and 18.8% and 18.9%
Compound 30 µM
  viability, T/C: 7.13% and 11.4% and 9.39%
Curve of compound
  IC50: 2140 nM and 3840 nM and 2500 nM
